Experimental data reported in ChEMBL document CHEMBL3879907, “8-azabicyclo[3.2.1]octane compounds as mu opioid receptor antagonists” (2014).

Key:
[1] = target: Kappa-type opioid receptor (Cavia porcellus, UniProt P41144); test: Displacement of [3H]-diprenorphine from guinea pig kappa opioid receptor expressed in CHOK1 cell membranes; conditions: cho-k1
Mus musculus [2] = test: Reversal of morphine-induced delayed gastrointestinal transit in po dosed mouse compound administered prior to morphine challenge followed by non-nutritive, non-absorbable charcol meal administration by oral gavage at 5 mins post morphine challenge for 60 mins; type: functional; conditions: read-out: ID50 (the source's name)
Mus musculus [3] = test: Reversal of morphine-induced delayed gastrointestinal transit in sc dosed mouse compound administered prior to morphine challenge followed by non-nutritive, non-absorbable charcol meal administration by oral gavage at 5 mins post morphine challenge for 60 mins; type: functional; conditions: read-out: ID50 (the source's name)
[4] = target: Delta-type opioid receptor (Homo sapiens, UniProt P41143); test: Displacement of [3H]-diprenorphine from human delta opioid receptor expressed in cell membranes
[5] = target: Mu-type opioid receptor (Homo sapiens) (UniProt P35372); test: Intrinsic activity at human mu opioid receptor expressed in CHOK1 cell membranes at 0.00001 to 20 uM after 30 mins by GTP-Eu nucleotide exchange assay relative to DAMGO; type: functional; conditions: CHO-K1
Sequence of Mu-type opioid receptor (Homo sapiens) (P35372 whole entry): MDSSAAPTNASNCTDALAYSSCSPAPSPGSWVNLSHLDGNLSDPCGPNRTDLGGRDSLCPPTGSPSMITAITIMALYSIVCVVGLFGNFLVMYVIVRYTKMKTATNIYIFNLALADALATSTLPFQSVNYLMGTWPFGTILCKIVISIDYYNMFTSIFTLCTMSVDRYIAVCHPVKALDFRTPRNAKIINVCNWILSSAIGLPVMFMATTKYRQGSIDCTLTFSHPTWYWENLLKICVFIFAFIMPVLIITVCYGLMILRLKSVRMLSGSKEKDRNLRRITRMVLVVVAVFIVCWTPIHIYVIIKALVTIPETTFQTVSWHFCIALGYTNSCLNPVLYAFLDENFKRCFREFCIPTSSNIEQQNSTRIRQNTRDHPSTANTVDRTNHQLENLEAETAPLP

Sequence of Kappa-type opioid receptor (P41144 whole entry): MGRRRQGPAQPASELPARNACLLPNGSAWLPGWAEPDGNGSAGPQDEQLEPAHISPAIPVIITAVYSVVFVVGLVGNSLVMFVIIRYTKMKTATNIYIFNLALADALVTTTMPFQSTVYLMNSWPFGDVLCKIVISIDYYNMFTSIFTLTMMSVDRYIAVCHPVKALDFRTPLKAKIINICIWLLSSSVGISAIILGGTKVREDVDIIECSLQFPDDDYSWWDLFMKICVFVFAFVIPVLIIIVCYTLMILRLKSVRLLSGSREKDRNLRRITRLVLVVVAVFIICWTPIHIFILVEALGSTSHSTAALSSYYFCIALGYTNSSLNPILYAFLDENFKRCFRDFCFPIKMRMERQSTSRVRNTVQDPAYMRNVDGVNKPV
Sequence of Delta-type opioid receptor (P41143 whole entry): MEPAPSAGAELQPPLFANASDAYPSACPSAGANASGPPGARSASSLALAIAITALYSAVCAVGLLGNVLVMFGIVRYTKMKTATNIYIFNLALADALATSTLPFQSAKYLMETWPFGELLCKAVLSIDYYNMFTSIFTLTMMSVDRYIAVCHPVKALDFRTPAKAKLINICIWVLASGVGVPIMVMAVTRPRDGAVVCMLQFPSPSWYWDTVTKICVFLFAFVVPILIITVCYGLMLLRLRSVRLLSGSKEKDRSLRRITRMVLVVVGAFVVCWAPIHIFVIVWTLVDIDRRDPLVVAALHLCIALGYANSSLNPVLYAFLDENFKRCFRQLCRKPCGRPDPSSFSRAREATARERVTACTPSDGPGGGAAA

Compound | pKi [1] | ED50 (Mus musculus [2]) [mg/kg] | ED50 (Mus musculus [3]) [mg/kg] | pKi [4] | Intrinsic activity [5] [%]
NC(=O)c1cccc([C@H]2C[C@H]3CC[C@@H](C2)N3CCN(CC2CCCCC2)C(=O)[C@@H](O)CO)c1.O=C(O)C(=O)O | 7 to 10.5 | 0.1 to 3 | 0.1 to 3 | 7 to 10.5 | 
NC(=O)c1cccc([C@H]2C[C@H]3CC[C@@H](C2)N3CCN(CC2CCCCC2)C(=O)[C@@H](O)CO)c1 [AXELOPRAN] |  | 0.1 to 3 | 0.1 to 3 |  | 
NC(=O)c1cccc([C@H]2C[C@H]3CC[C@@H](C2)N3CCN(Cc2ccccc2)C(=O)CO)c1 | 7 to 10.5 | 0.1 to 3 | 0.1 to 3 | 7 to 10.5 | 
NC(=O)c1cccc([C@H]2C[C@H]3CC[C@@H](C2)N3CCN(CC2CCCCC2)C(=O)CO)c1 |  | 0.1 to 3 | 0.1 to 3 |  | < 40
NC(=O)c1cccc([C@H]2C[C@H]3CC[C@@H](C2)N3CCN(CCc2ccccc2)C(=O)CO)c1 |  | 0.1 to 3 | 0.1 to 3 | 7 to 10.5 | 
NC(=O)c1cccc([C@H]2C[C@H]3CC[C@@H](C2)N3CCN(CC2CCCCC2)C(=O)[C@@H](O)CO)c1.O=S(=O)(O)O [AXELOPRAN SULFATE] |  | 0.1 to 3 | 0.1 to 3 |  | 
NC(=O)c1cccc([C@H]2C[C@H]3CC[C@@H](C2)N3CCN(CC2CCC(F)(F)CC2)C(=O)CO)c1 | 7 to 10.5 | 0.1 to 3 | 0.1 to 3 | 7 to 10.5 | < 40
NC(=O)c1cccc([C@H]2C[C@H]3CC[C@@H](C2)N3CCCN(Cc2ccccc2)C(=O)[C@H](O)CO)c1.O=C(O)C(F)(F)F | 7 to 10.5 |  |  | 7 to 10.5 | < 40
CS(=O)(=O)CC(=O)N(CCN1[C@@H]2CC[C@H]1C[C@@H](c1cccc(C(N)=O)c1)C2)Cc1c(F)cccc1F | 7 to 10.5 |  |  | 7 to 10.5 | < 40
CN(C)S(=O)(=O)N(CCN1[C@@H]2CC[C@H]1C[C@@H](c1cccc(C(N)=O)c1)C2)CC1CCCCC1.O=C(O)C(F)(F)F | 7 to 10.5 |  |  | 7 to 10.5 | < 40
NC(=O)c1cccc([C@H]2C[C@H]3CC[C@@H](C2)N3CCCN(Cc2ccccc2)C(=O)[C@@H](O)CO)c1.O=C(O)C(F)(F)F | 7 to 10.5 |  |  | 7 to 10.5 | < 40
CC(C)(CO)C(=O)N(CCN1[C@@H]2CC[C@H]1C[C@@H](c1cccc(C(N)=O)c1)C2)Cc1c(F)cccc1F.O=C(O)C(F)(F)F | 7 to 10.5 |  |  | 7 to 10.5 | < 40
O=C(C1CCCC1)N(CCN1[C@@H]2CC[C@H]1C[C@@H](c1cccc(O)c1)C2)CC1CCCCC1 | 7 to 10.5 |  |  | 7 to 10.5 | < 40
CC(=O)N(CCCN1[C@@H]2CC[C@H]1C[C@@H](c1cccc(C(N)=O)c1)C2)CC1CCCCC1 | 7 to 10.5 |  |  | 7 to 10.5 | < 40
NC(=O)c1cccc([C@H]2C[C@H]3CC[C@@H](C2)N3CCN(CC2CCCCC2)C(=O)C[C@H](O)CO)c1.O=C(O)C(F)(F)F | 7 to 10.5 |  |  | 7 to 10.5 | < 40
N#CCC(=O)N(CCN1[C@@H]2CC[C@H]1C[C@@H](c1cccc(C(N)=O)c1)C2)Cc1ccccc1.O=C(O)C(F)(F)F | 7 to 10.5 |  |  | 7 to 10.5 | < 40
NC(=O)c1cccc([C@H]2C[C@H]3CC[C@@H](C2)N3CCN(CC2CCC2)C(=O)CO)c1.O=C(O)C(F)(F)F | 7 to 10.5 |  |  | 7 to 10.5 | < 40
O=C(CO)N(CCN1[C@@H]2CC[C@H]1C[C@@H](c1cccc(O)c1)C2)CC1CCCCC1 | 7 to 10.5 |  |  | 7 to 10.5 | < 40
O=C(Nc1ccc(OC(F)F)cc1)N(CCN1[C@@H]2CC[C@H]1C[C@@H](c1cccc(O)c1)C2)CC1CCCCC1 | 7 to 10.5 |  |  | 7 to 10.5 | < 40
CC(C)C[C@H](O)C(=O)N(CCN1[C@@H]2CC[C@H]1C[C@@H](c1cccc(C(N)=O)c1)C2)Cc1c(F)cccc1F.O=C(O)C(F)(F)F | 7 to 10.5 |  |  | 7 to 10.5 | < 40
CCC(=O)N(CCN1[C@@H]2CC[C@H]1C[C@@H](c1cccc(O)c1)C2)CC1CCCCC1 | 7 to 10.5 |  |  | 7 to 10.5 | < 40
